≈ marks a conversion by molar mass, not a printed value.
Key:
Test in all cases: ≥ marks a high value that may be exact or a test limit, other limits are often not marked, values filed in µg/mL are converted to µM
[1] = tested on: Candida albicans ATCC 2002
[2] = tested on: Candida albicans ATCC 90028
Shigella dysenteriae = tested on: Shigella dysenteriae
[3] = tested on: Staphylococcus aureus ATCC 2592
[4] = tested on: Staphylococcus aureus NCTC 8325
[5] = tested on: Bacillus subtilis ATCC 6633
[6] = tested on: Candida parapsilosis ATCC 22019
[7] = tested on: Escherichia coli ATCC 25922
[8] = tested on: Staphylococcus epidermidis ATCC 12228
Bacillus cereus = tested on: Bacillus cereus
Enterococcus faecalis = tested on: Enterococcus faecalis
Escherichia coli = tested on: Escherichia coli
Leuconostoc lactis = tested on: Leuconostoc lactis
Listeria innocua = tested on: Listeria innocua
Micrococcus luteus = tested on: Micrococcus luteus
Pasteurella multocida = tested on: Pasteurella multocida
Staphylococcus aureus = tested on: Staphylococcus aureus
[9] = tested on: Staphylococcus epidermidis
Streptococcus uberis = tested on: Streptococcus uberis
Bacillus subtilis = tested on: Bacillus subtilis
Klebsiella pneumoniae = tested on: Klebsiella pneumoniae
Proteus mirabilis = tested on: Proteus mirabilis
Pseudomonas aeruginosa = tested on: Pseudomonas aeruginosa
Salmonella typhimurium = tested on: Salmonella typhimurium
Candida albicans = tested on: Candida albicans
Escherichia coli MG1655 = tested on: Escherichia coli MG1655
[10] = tested on: Pseudomonas aeruginosa PAO1
[11] = tested on: Staphylococcus aureus ATCC 25923

SMILES	MIC (Shigella dysenteriae) [µM]	MIC (Bacillus cereus) [µM]	MIC (Escherichia coli) [µM]	MIC (Leuconostoc lactis) [µM]	MIC (Listeria innocua) [µM]	MIC (Micrococcus luteus) [µM]	MIC (Pasteurella multocida) [µM]	MIC (Staphylococcus aureus) [µM]	MIC [9] [µM]	MIC (Streptococcus uberis) [µM]	further results
CC[C@H](C)[C@H](NC(=O)CNC(=O)[C@H](CO)NC(=O)[C@H](CC(C)C)NC(=O)[C@H](CC(C)C)NC(=O)CN)C(=O)N[C@@H](CC(C)C)C(=O)NCC(=O)N[C@@H](C)C(=O)NCC(=O)N[C@@H](CCCCN)C(=O)N[C@@H](CC(N)=O)C(=O)N[C@H](C(=O)N[C@H](C(=O)N[C@H]1CSSC[C@@H](C(=O)O)NC(=O)[C@H](CC(C)C)NC(=O)CNC(=O)[C@H](CO)NC(=O)[C@H](CC(C)C)NC(=O)CNC1=O)C(C)C)[C@@H](C)CC [GLLSGILGAGKNIVCGLSGLC]	0.643 (≈ 1.25 µg/mL)										MIC [1]: 3.86 µM (≈ 7.49 µg/mL); MIC [2]: ≥ 100 µM; MIC [3]: 1.29 µM (≈ 2.5 µg/mL); MIC [4]: ≥ 100 µM
CC[C@H](C)[C@H](NC(=O)[C@H](CCCCN)NC(=O)[C@@H]1CCCN1C(=O)[C@H](CC(C)C)NC(=O)[C@H](Cc1ccccc1)NC(=O)[C@H](CC(C)C)NC(=O)[C@@H]1CCCN1C(=O)[C@H](CC(C)C)NC(=O)[C@@H](N)Cc1ccccc1)C(=O)N[C@H](C(=O)N[C@H]1CSSC[C@@H](C(=O)O)NC(=O)[C@H](CCCCN)NC(=O)[C@H](CCCCN)NC(=O)[C@H]([C@@H](C)O)NC(=O)[C@H]([C@@H](C)CC)NC(=O)[C@H](C(C)C)NC1=O)[C@@H](C)CC [FLPLFLPKIICVITKKC]	17.7 (≈ 35 µg/mL)										MIC [5]: 4.75 µM (≈ 9.37 µg/mL); MIC [1]: 9.49 µM (≈ 18.7 µg/mL); MIC [3]: 2.38 µM (≈ 4.7 µg/mL)
CC[C@H](C)[C@H](N)C(=O)N[C@H](C(=O)N1CCC[C@H]1C(=O)N[C@@H](Cc1ccccc1)C(=O)N[C@@H](CC(C)C)C(=O)N[C@@H](CC(C)C)C(=O)NCC(=O)N[C@@H](CCSC)C(=O)N[C@H](C(=O)N1CCC[C@H]1C(=O)N[C@@H](CCCCN)C(=O)N[C@@H](CC(C)C)C(=O)N[C@H](C(=O)N[C@H]1CSSC[C@@H](C(=O)O)NC(=O)[C@H](CCCCN)NC(=O)[C@H](CCCCN)NC(=O)[C@H]([C@@H](C)O)NC(=O)[C@H]([C@@H](C)CC)NC(=O)[C@H](CC(C)C)NC1=O)C(C)C)C(C)C)C(C)C [IVPFLLGMVPKLVCLITKKC]											MIC [6]: 16 µM (≈ 35.4 µg/mL); MIC [7]: 64 µM (≈ 142 µg/mL); MIC [8]: 4 µM (≈ 8.86 µg/mL)
CC[C@H](C)[C@H](NC(=O)[C@@H](NC(=O)CNC(=O)[C@H](C)NC(=O)[C@@H](NC(=O)[C@H](CCCCN)NC(=O)[C@H](CCCCN)NC(=O)[C@H](CC(C)C)NC(=O)[C@H](Cc1ccccc1)NC(=O)[C@H](CC(=O)O)NC(=O)[C@@H](NC(=O)[C@H](Cc1ccccc1)NC(=O)CN)C(C)C)C(C)C)[C@@H](C)O)C(=O)N[C@@H](C)C(=O)N[C@@H](CC(N)=O)C(=O)N[C@H](C(=O)N[C@H](C(=O)N[C@H](C(N)=O)[C@@H](C)O)C(C)C)C(C)C [GFVDFLKKVAGTIANVVT]		≥ 53.2	> 53.2	≥ 53.2	≥ 53.2	≥ 53.2	≥ 53.2	53.2 (≈ 99.9 µg/mL)	26.6 (≈ 50 µg/mL)	13.3 (≈ 25 µg/mL)	MIC (Enterococcus faecalis): ≥ 53.2 µM
CC(C)C[C@H](NC(=O)[C@@H](NC(=O)[C@H](CCCCN)NC(=O)[C@H](CO)NC(=O)[C@H](C)NC(=O)[C@@H](NC(=O)[C@H](CCCCN)NC(=O)[C@H](Cc1ccccc1)NC(=O)[C@H](CC(C)C)NC(=O)[C@H](C)NC(=O)CN)C(C)C)C(C)C)C(=O)O [GALFKVASKVL]	≥ 177		177 (≈ 200 µg/mL)			≥ 177		177 (≈ 200 µg/mL)	≥ 177		MIC (Bacillus subtilis): ≥ 177 µM; MIC (Klebsiella pneumoniae): > 177 µM; MIC (Proteus mirabilis): ≥ 177 µM; MIC (Pseudomonas aeruginosa): > 177 µM; MIC (Salmonella typhimurium): ≥ 177 µM
CC[C@H](C)[C@H](NC(=O)[C@@H](NC(=O)[C@@H]1CCCN1C(=O)[C@@H](NC(=O)[C@@H](NC(=O)[C@H](Cc1cnc[nH]1)NC(=O)[C@@H]1CCCN1C(=O)[C@H](CC(C)C)NC(=O)[C@@H](NC(=O)[C@H](Cc1cnc[nH]1)NC(=O)[C@H](CCCCN)NC(=O)[C@H](C)NC(=O)[C@@H](NC(=O)[C@H](CO)NC(=O)[C@H](CO)NC(=O)[C@H](CC(C)C)NC(=O)[C@H](CO)NC(=O)[C@H](CO)NC(=O)[C@H](CC(C)C)NC(=O)[C@H](CC(C)C)NC(=O)CN)C(C)C)C(C)C)C(C)C)C(C)C)C(C)C)C(=O)N[C@@H](C)C(=O)N[C@@H](CCC(=O)O)C(=O)N[C@@H](Cc1cnc[nH]1)C(=O)N[C@@H](CC(C)C)C(N)=O [GLLSSLSSVAKHVLPHVVPVIAEHL]		19.2 (≈ 50 µg/mL)	19.2 (≈ 50 µg/mL)	4.61 (≈ 12 µg/mL)	≥ 38.4	0.154 (≈ 0.4 µg/mL)	9.6 (≈ 25 µg/mL)	38.4 (≈ 100 µg/mL)	9.6 (≈ 25 µg/mL)	≥ 38.4	
CSCC[C@H](NC(=O)[C@@H](NC(=O)[C@@H](N)CCCCN)C(C)C)C(=O)N[C@@H](CCCN=C(N)N)C(=O)N[C@@H](CCCCN)C(=O)N[C@H](C(=O)N[C@@H](CC(C)C)C(=O)NCC(=O)N[C@@H](Cc1ccc(O)cc1)C(=O)N[C@@H](CC(C)C)C(=O)N[C@@H](CCCN=C(N)N)C(=O)N[C@@H](CC(N)=O)C(=O)N[C@H](C(=O)N[C@@H](Cc1ccc(O)cc1)C(=O)N[C@@H](CCCCN)C(N)=O)C(C)C)C(C)C [KVMRKVLGYLRNVYK]											MIC (Candida albicans): 32 µM (≈ 59.7 µg/mL); MIC (Escherichia coli MG1655): 2 µM (≈ 3.73 µg/mL); MIC [10]: 32 µM (≈ 59.7 µg/mL); MIC [11]: 128 µM (≈ 239 µg/mL)
CC[C@H](C)[C@@H]1NC(=O)[C@H](C)NC(=O)[C@@H](NC(=O)[C@H](CCCCN)NC(=O)[C@@H](NC(=O)[C@H](CO)NC(=O)[C@@H]2CCCN2C(=O)[C@H](CC(C)C)NC(=O)[C@@H](NC(=O)[C@H](CCCCN)NC(=O)[C@H](CO)NC(=O)[C@H](C)NC(=O)[C@@H](NC(=O)[C@H](CCCCN)NC(=O)[C@H](Cc2ccccc2)NC(=O)[C@H](CC(C)C)NC(=O)[C@H](C)NC(=O)CNC(=O)[C@H](CC(C)C)NC(=O)[C@@H](N)Cc2ccccc2)C(C)C)C(C)C)C(C)C)CSSC[C@@H](C(=O)O)NC(=O)[C@H](CCCCN)NC(=O)[C@H](CCCCN)NC(=O)[C@H]([C@@H](C)O)NC1=O [FLGALFKVASKVLPSVKCAITKKC]	19.6 (≈ 50 µg/mL)		4.9 (≈ 12.5 µg/mL)			2.47 (≈ 6.3 µg/mL)		1.21 (≈ 3.1 µg/mL)	4.9 (≈ 12.5 µg/mL)		MIC (Bacillus subtilis): 2.47 µM (≈ 6.3 µg/mL); MIC (Klebsiella pneumoniae): 9.8 µM (≈ 25 µg/mL); MIC (Proteus mirabilis): ≥ 78.4 µM; MIC (Pseudomonas aeruginosa): 78.4 µM (≈ 200 µg/mL); MIC (Salmonella typhimurium): ≥ 39.2 µM
CC[C@H](C)[C@H](NC(=O)[C@@H](NC(=O)[C@H](C)NC(=O)[C@H](C)NC(=O)[C@@H](NC(=O)[C@H](CCCCN)NC(=O)[C@H](CCCCN)NC(=O)[C@@H](NC(=O)[C@@H](NC(=O)[C@H](C)NC(=O)[C@H](Cc1ccccc1)NC(=O)[C@H](CC(C)C)NC(=O)[C@@H](N)CCCCN)C(C)C)[C@@H](C)CC)C(C)C)C(C)C)C(=O)N[C@@H](CCCN=C(N)N)C(=O)N[C@@H](CCCN=C(N)N)C(=O)N[C@@H](CC(C)C)C(N)=O [KLFAVIKKVAAVIRRL]		≥ 54.8	> 54.8	6.57 (≈ 12 µg/mL)	27.4 (≈ 50 µg/mL)	≥ 54.8	≥ 54.8	> 54.8	≥ 54.8	≥ 54.8	
CC[C@H](C)[C@H](NC(=O)CNC(=O)[C@H](CO)NC(=O)[C@@H](NC(=O)[C@@H](NC(=O)CNC(=O)[C@H](CCCCN)NC(=O)[C@H](C)NC(=O)[C@H](CC(C)C)NC(=O)[C@H](CO)NC(=O)[C@H](CCC(=O)O)NC(=O)[C@H](CC(C)C)NC(=O)[C@H](CO)NC(=O)[C@H](CCC(=O)O)NC(=O)[C@H](CC(C)C)NC(=O)[C@H](CCCCN)NC(=O)[C@H](CCC(=O)O)NC(=O)[C@H](CCCCN)NC(=O)[C@@H](NC(=O)[C@@H](NC(=O)[C@H](CCC(N)=O)NC(=O)[C@H](CC(C)C)NC(=O)[C@H](CC(C)C)NC(=O)CN)[C@@H](C)O)[C@@H](C)CC)[C@@H](C)CC)C(C)C)C(=O)N[C@@H](CCC(N)=O)C(=O)N[C@@H](C)C(N)=O [GLLQTIKEKLESLESLAKGIVSGIQA]		≥ 36.7	> 36.7	≥ 36.7	≥ 36.7	≥ 36.7	≥ 36.7	> 36.7	≥ 36.7	9.17 (≈ 25 µg/mL)	MIC (Enterococcus faecalis): ≥ 36.7 µM

From DBAASP
